How the values were obtained:
LacCer synthase (GalT-2) = target: T1, LacCer synthase (GalT-2) (Rattus norvegicus, UniProt O88419); assay: Measurement of [14C]LacCer synthesis in primary astrocytes (HPTLC); assay type: cell-based
T1 construct: using cell lysates derived from cells stimulated with LPS/IFNγ; endogenous in cells; host or cells: rat primary astrocytes
T1 sequence (O88419 1-382): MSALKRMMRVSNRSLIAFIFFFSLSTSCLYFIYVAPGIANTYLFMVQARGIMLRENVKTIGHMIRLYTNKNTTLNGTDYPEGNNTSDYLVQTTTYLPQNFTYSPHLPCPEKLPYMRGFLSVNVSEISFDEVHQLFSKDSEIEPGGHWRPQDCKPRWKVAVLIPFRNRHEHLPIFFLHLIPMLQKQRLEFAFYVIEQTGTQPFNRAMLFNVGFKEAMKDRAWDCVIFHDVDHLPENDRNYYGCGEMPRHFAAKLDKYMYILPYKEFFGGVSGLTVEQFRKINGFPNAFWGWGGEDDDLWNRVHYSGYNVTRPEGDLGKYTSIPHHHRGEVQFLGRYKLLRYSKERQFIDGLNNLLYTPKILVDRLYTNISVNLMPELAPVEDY
Protocol: Cultured cells were incubated in growth medium containing [^14C]galactose (5 μCi/ml) for 24 h as described previously. The medium was removed, and the cell monolayer was washed with sterile PBS. After the stimulation with LPS/IFNγ (1 μg/ml; 10 U/ml) for various durations, cells were then harvested and washed with ice cold PBS and lysed by sonication. 200 μg of protein was used for extraction of lipids using Chloroform:Methanol:HCl (100:100:1). The organic phase was dried under nitrogen. Glycosphingolipids were resolved by high performance thin layer chromatography using chloroform/methanol/0.25% KCl (70:30:4, v/v/v) as the developing solvent. The gel area corresponding to LacCer was scraped, and radioactivity was measured employing “liquiscint” (NEN Life Science Products) as a scintillating fluid.

IκB = assay: Phosphorylated IκB immunoblot of cytoplasmic extract; assay type: cell-based, rat; conditions: LPS/IFNγ
Protocol: For iNOS protein, the cells were washed with cold Tris buffered saline (TBS; 20 mM Trizma base, and 137 mM NaCl, pH 7.5), lysed in 1×SDS sample loading buffer (62.5 mM Trizma base, 2% w/v SDS, 10% glycerol), following sonication and centrifugation at 15,000×g for 5 min, the supernatant was used for the iNOS western immunoblot assay. The protein concentration of samples was determined with the detergent compatible protein assay reagent (Bio-Rad Laboratories, CA) using bovine serum albumin (BSA) as the standard. Sample was boiled for 3 min with 0.1 volumes of 10% β-mercaptoethanol and 0.5% bromophenol blue mix. Fifty μg of total cellular protein was resolved by electrophoresis on 8 or 12% polyacrylamide gels, electro-transferred to polyvinylidene difluoride (PVDF) filter and blocked with Tween 20 containing Tris-buffered saline (TBST; 10 mM Trizma base-pH 7.4, 1% Tween 20, and 150 mM NaCl) with 5% skim milk. […] The membranes were detected by autoradiography using ECL-plus (Amersham Pharmacia Biotech) after washing with TBST buffer.

IL-1β = IL-1β mRNA in LPS/IFNγ-stimulated primary astrocytes; assay type: cell-based, rat
Protocol: (§1) A 20-mer antisense oligonucleotide of the following sequence (5′-CGCTTGAGCGCAGACATCTT-3′, SEQ ID NO:1) targeted against rat lactosylceramide synthase (GalT-2) were synthesized by Integrated DNA Technology. A scrambled oligonucleotide (5′-CTGATATCGTCGATATCGAT-3′, SEQ ID NO:2) was also synthesized and used as control. Cells were counted and plated a day before transfection and the following day were treated with Oligofectamine (Invitrogen)-oligonucleotide complexes (200 nM oligo) under serum free conditions. 48 h following transfection, the protein levels of GalT-2 were analyzed using polyclonal antibodies raised against rat GalT-2 (Abjent Inc., CA). The transfected cells were stimulated with LPS/IFNγ (1 μg/ml) and levels of nitric oxide were checked 24 h following stimulation. iNOS mRNA and protein levels were checked at 6 h and 24 h, respectively, following stimulation of transfected cells.
(§2) 5 μg total RNA was treated with 2 U DNAse I (bovine pancreas, Sigma) for 15 min at room temperature in 18 μl volume containing 1×PCR buffer and 2 mM MgCl2. It was then inactivated by incubation with 2 μl of 25 mM EDTA at 65° C. for 15 min. 2 μl of random primers were added and annealed to the RNA according to the manufacturer's protocol. cDNA was synthesized in a 50 μl reaction containing 5 μg of total RNA and 50-100 U reverse transcriptase by incubating the tubes at 42° C. for 60 min. […]

TNFα = TNFα mRNA in LPS/IFNγ-stimulated primary astrocytes; assay type: cell-based, rat
Protocol: as §1, §2

[1] = LPS/IFNγ-stimulated astrocytes, 48 h after transfection

Compound | [14C]LacCer biosynthesis following LPS/IFNγ-stimulation (LacCer synthase (GalT-2)) | Phosphorylation of IκB (IκB; in the presence of PDMP) | IL-1β mRNA expression (IL-1β; [1]) | TNFα mRNA expression (TNFα; [1]) | [14C]LacCer synthesis upon TNFα-stimulation (LacCer synthase (GalT-2); TNFα 1 ng/ml) | Reversal of AS-mediated inhibition of IL-1β expression (IL-1β; exogenous LacCer, LPS/IFNγ) | Reversal of AS-mediated inhibition of TNFα expression (TNFα; exogenous LacCer, LPS/IFNγ) | Levels of phosphorylated IκB when LacCer was added to PDMP (IκB; PDMP plus LacCer)
CCCCCCCCCC(=O)NC(CN1CCOCC1)C(O)c1ccccc1.Cl [PDMP, D-threo-1-Phenyl-2-decanoylamino-3-morpholino-1-propanol.HCl] | inhibited this increase | Decreased |  |  |  |  |  | 
AS GalT-2 oligonucleotides: 20-mer antisense oligonucleotide 5′-CGCTTGAGCGCAGACATCTT-3′, SEQ ID NO:1, against rat lactosylceramide synthase (GalT-2) (antisense CGCTTGAGCGCAGACATCTT; chemistry not given here) | diminished synthesis |  | suppressed | suppressed | diminished synthesis |  |  | 
Lactosylceramide [LacCer] |  |  |  |  |  | reversed | reversed | increased

From patent US20110059909A1, “METHODS FOR TREATING INFLAMMATORY DISORDERS” (priority 2004, published 2011)
